# Laboratory results published in ChEMBL document CHEMBL3769388, “Optimization of a Dicarboxylic Series for in Vivo Inhibition of Citrate Transport by the Solute Carrier 13 (SLC13) Family” (J Med Chem, 2016).
# Calls of active or inactive are those of the source. The calls are words filed in the database; no cut-off is given here.
# Key:
# [1] = organism: Rattus norvegicus; assay: Increase in [12C]-citrate levels in rat plasma measured over 140 to 150 mins by UPLC-MS/MS analysis; type: functional, organism-based
# [2] = molecular target: Na(+)/citrate cotransporter (Homo sapiens, UniProt Q86YT5); assay: Inhibition of NaCT (unknown origin) expressed in HEK293 cells assessed as inhibition of [14C]citrate uptake by microbeta plate reader analysis; type: cell-based; conditions: read-out: IC50
# [3] = molecular target: Beta-1 adrenergic receptor (Homo sapiens) (UniProt P08588); assay: Inhibition of ADRB1 (unknown origin)
# [4] = molecular target: Acetylcholinesterase (Homo sapiens) (UniProt P22303); assay: Inhibition of ACHE (unknown origin)
# [5] = molecular target: Histamine H2 receptor (Homo sapiens) (UniProt P25021); assay: Inhibition of H2 (unknown origin)
# [6] = molecular target: Tyrosine-protein kinase ABL1 (Homo sapiens) (UniProt P00519); assay: Inhibition of ABL1 (unknown origin)
# [7] = molecular target: T1, Solute carrier family 13 member 2 (Homo sapiens, UniProt Q13183); assay: Inhibition of NaDC1 (unknown origin) expressed in HEK293 cells assessed as inhibition of [14C]citrate uptake by microbeta plate reader analysis; type: cell-based
# T1 sequence (Q13183 whole entry): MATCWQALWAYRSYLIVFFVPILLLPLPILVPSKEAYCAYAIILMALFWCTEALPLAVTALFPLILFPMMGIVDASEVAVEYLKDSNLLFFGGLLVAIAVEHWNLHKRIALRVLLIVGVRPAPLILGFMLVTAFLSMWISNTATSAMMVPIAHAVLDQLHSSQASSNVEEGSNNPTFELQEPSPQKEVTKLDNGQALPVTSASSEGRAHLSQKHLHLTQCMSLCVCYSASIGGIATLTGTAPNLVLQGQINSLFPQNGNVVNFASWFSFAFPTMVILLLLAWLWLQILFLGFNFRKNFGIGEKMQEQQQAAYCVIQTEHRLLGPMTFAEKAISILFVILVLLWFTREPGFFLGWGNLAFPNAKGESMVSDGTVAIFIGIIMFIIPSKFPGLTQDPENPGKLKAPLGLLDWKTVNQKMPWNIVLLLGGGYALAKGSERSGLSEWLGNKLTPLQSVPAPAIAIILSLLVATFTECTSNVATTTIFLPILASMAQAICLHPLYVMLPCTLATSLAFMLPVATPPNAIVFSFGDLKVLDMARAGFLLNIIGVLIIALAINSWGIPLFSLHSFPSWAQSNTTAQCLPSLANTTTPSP
# [8] = molecular target: Alpha-2B adrenergic receptor (Homo sapiens) (UniProt P18089); assay: Inhibition of ADRA2B (unknown origin)
# [9] = molecular target: Vasopressin V1a receptor (Homo sapiens) (UniProt P37288); assay: Inhibition of AVPR1A (unknown origin)
# [10] = Clearance in mouse hepatocytes assessed per 10^6 cells; type: ADME, cell-based, Hepatocyte; conditions: read-out: CLH
# [11] = molecular target: High affinity choline transporter 1 (Homo sapiens) (UniProt Q9GZV3); assay: Inhibition of choline transporter 1 (unknown origin)
# [12] = test system: Rattus norvegicus; assay: Decrease in [14C]citrate uptake in iv dosed Wistar Han rat testis measured after 185 to 200 mins by scintillation counting method; type: functional, organism-based
# [13] = molecular target: Gastrin/cholecystokinin type B receptor (Homo sapiens) (UniProt P32239); assay: Inhibition of CCKBR (unknown origin)
# [14] = molecular target: Androgen receptor (Homo sapiens) (UniProt P10275); assay: Inhibition of Androgen receptor (unknown origin)
# [15] = test system: Rattus norvegicus; assay: Decrease in [14C]citrate uptake in iv dosed Wistar Han rat kidney measured after 185 to 200 mins by scintillation counting method; type: functional, organism-based
# [16] = molecular target: Angiotensin-converting enzyme (Homo sapiens) (UniProt P12821); assay: Inhibition of ACE1 (unknown origin)
# [17] = organism: Mus musculus; assay: Decrease in [14C]citrate uptake in DIO mouse liver during hyperinsulinemic-euglycemic clamp; type: functional, organism-based
# [18] = molecular target: ATP-citrate synthase (Homo sapiens) (UniProt P53396); assay: Inhibition of ACL (unknown origin) upto 30 uM
# [19] = molecular target: Muscarinic acetylcholine receptor M1 (Homo sapiens) (UniProt P11229); assay: Inhibition of M1 (unknown origin)
# [20] = molecular target: Voltage-gated inwardly rectifying potassium channel KCNH2 (Homo sapiens, UniProt Q12809); assay: Inhibition of human ERG
# [21] = molecular target: Mu-type opioid receptor (Homo sapiens) (UniProt P35372); assay: Inhibition of MOP (unknown origin)
# [22] = molecular target: Prostaglandin G/H synthase 2 (Homo sapiens) (UniProt P35354); assay: Inhibition of cyclooxygenase 2 (unknown origin)
# [23] = test system: Rattus norvegicus; assay: Decrease in [14C]citrate uptake in iv dosed Wistar Han rat liver measured after 185 to 200 mins by scintillation counting method; type: functional, organism-based
# [24] = molecular target: Neuronal acetylcholine receptor; alpha4/beta2 (Homo sapiens) (UniProt P17787+P43681); assay: Inhibition of alpha-4/beta-2 (unknown origin); type: protein-complex assay
# [25] = molecular target: Bile salt export pump (Homo sapiens, UniProt O95342); assay: Inhibition of ABCB11 (unknown origin)
# [26] = Total plasma clearance in Wistar Han rat at 1 mg/kg, iv by LC-MS/MS analysis; type: ADME, organism-based
# [27] = Clearance in human hepatocytes assessed per 10^6 cells; type: ADME, cell-based, Hepatocyte; conditions: read-out: CLH
# [28] = molecular target: cGMP-inhibited 3',5'-cyclic phosphodiesterase 3B (Homo sapiens) (UniProt Q13370); assay: Inhibition of PDE3B (unknown origin)
# [29] = molecular target: Tyrosine-protein kinase Lck (Homo sapiens) (UniProt P06239); assay: Inhibition of LCK (unknown origin)
# [30] = molecular target: Kappa-type opioid receptor (Homo sapiens) (UniProt P41145); assay: Inhibition of OPRK1 (unknown origin)
# [31] = molecular target: Sodium channel protein type 1 subunit alpha (Homo sapiens) (UniProt P35498); assay: Inhibition of NaV1.1 (unknown origin)
# [32] = Half life in Wistar Han rat at 1 mg/kg, iv by LC-MS/MS analysis; type: ADME, organism-based; conditions: in vivo
# [33] = molecular target: Proto-oncogene tyrosine-protein kinase Src (Homo sapiens) (UniProt P12931); assay: Inhibition of SRC (unknown origin)
# [34] = test system: Mus musculus; assay: Increase in urinary citrate output in C57BL/6J mouse at 250 mg/kg, po measured after 7 hrs by UPLC-MS/MS analysis; type: functional, Urine
# [35] = molecular target: D(1A) dopamine receptor (Homo sapiens) (UniProt P21728); assay: Inhibition of D1 (unknown origin)
# [36] = molecular target: Cytochrome P450 2D6 (Homo sapiens, UniProt P10635); assay: Inhibition of CYP2D6 (unknown origin); type: ADME
# [37] = molecular target: Type-1 angiotensin II receptor (Homo sapiens) (UniProt P30556); assay: Inhibition of AGTR1 (unknown origin)
# [38] = molecular target: Cytochrome P450 2C9 (Homo sapiens, UniProt P11712); assay: Inhibition of CYP2C9 (unknown origin); type: ADME
# [39] = molecular target: 5-hydroxytryptamine receptor 2A (Homo sapiens) (UniProt P28223); assay: Inhibition of 5HT2A receptor (unknown origin)
# [40] = molecular target: Cytochrome P450 2C8 (Homo sapiens, UniProt P10632); assay: Inhibition of CYP2C8 (unknown origin); type: ADME
# Cytochrome P450 2C8, sequence (P10632 whole entry): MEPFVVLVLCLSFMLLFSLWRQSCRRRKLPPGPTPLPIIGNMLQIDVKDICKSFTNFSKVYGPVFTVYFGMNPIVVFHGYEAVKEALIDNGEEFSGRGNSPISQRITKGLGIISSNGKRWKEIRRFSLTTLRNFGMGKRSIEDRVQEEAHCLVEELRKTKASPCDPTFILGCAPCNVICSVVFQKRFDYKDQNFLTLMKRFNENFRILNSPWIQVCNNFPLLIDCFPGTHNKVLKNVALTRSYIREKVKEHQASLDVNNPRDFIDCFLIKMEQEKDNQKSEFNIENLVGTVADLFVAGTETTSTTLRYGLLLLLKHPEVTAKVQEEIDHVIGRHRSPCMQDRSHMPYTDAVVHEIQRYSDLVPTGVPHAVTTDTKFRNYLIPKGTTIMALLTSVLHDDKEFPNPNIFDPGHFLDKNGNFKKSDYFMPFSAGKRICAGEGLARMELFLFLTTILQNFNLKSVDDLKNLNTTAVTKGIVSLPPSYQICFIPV
# Type-1 angiotensin II receptor (Homo sapiens), sequence (P30556 whole entry): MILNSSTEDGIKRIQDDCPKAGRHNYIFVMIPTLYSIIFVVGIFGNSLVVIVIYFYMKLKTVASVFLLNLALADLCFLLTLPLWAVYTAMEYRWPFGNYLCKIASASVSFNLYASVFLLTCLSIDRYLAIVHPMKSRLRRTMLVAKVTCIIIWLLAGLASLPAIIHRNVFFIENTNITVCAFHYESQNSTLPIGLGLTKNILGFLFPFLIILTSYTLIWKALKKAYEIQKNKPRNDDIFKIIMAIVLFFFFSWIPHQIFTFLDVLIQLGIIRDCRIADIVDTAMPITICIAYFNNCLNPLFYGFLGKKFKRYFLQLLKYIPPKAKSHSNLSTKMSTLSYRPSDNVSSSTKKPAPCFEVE
# Angiotensin-converting enzyme (Homo sapiens), sequence (P12821 whole entry): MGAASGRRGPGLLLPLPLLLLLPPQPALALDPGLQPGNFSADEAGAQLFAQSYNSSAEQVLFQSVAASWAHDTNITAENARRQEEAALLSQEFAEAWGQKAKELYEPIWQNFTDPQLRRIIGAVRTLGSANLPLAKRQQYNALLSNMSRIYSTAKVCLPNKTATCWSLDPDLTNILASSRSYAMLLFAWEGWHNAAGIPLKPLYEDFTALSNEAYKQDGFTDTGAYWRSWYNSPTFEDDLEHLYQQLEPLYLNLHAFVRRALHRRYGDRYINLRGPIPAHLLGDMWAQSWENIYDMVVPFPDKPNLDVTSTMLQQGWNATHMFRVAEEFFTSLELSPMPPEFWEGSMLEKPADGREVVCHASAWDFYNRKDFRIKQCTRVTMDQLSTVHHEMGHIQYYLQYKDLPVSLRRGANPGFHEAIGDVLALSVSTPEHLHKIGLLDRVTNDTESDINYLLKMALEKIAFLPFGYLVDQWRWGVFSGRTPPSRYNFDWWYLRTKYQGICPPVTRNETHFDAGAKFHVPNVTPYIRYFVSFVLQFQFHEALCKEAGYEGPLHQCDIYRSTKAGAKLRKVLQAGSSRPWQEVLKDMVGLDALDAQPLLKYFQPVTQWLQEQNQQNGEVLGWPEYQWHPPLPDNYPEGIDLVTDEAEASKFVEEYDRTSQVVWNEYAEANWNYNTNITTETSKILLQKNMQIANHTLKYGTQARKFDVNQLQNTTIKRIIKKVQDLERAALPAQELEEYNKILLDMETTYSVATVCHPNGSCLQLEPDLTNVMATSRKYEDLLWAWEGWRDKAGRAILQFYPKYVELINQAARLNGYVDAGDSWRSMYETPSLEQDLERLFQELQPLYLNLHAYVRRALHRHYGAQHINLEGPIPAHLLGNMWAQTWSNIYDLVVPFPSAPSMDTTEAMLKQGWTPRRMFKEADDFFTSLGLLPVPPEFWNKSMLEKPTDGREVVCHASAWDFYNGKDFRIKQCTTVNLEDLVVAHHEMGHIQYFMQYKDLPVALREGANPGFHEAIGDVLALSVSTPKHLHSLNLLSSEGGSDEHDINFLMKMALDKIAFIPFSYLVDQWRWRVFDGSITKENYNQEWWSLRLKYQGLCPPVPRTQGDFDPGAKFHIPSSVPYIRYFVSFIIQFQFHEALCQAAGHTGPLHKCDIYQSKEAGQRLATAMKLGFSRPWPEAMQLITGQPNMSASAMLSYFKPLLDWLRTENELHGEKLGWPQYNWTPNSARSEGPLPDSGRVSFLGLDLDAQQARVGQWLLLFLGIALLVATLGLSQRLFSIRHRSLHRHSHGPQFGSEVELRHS
# ATP-citrate synthase (Homo sapiens), sequence (P53396 whole entry): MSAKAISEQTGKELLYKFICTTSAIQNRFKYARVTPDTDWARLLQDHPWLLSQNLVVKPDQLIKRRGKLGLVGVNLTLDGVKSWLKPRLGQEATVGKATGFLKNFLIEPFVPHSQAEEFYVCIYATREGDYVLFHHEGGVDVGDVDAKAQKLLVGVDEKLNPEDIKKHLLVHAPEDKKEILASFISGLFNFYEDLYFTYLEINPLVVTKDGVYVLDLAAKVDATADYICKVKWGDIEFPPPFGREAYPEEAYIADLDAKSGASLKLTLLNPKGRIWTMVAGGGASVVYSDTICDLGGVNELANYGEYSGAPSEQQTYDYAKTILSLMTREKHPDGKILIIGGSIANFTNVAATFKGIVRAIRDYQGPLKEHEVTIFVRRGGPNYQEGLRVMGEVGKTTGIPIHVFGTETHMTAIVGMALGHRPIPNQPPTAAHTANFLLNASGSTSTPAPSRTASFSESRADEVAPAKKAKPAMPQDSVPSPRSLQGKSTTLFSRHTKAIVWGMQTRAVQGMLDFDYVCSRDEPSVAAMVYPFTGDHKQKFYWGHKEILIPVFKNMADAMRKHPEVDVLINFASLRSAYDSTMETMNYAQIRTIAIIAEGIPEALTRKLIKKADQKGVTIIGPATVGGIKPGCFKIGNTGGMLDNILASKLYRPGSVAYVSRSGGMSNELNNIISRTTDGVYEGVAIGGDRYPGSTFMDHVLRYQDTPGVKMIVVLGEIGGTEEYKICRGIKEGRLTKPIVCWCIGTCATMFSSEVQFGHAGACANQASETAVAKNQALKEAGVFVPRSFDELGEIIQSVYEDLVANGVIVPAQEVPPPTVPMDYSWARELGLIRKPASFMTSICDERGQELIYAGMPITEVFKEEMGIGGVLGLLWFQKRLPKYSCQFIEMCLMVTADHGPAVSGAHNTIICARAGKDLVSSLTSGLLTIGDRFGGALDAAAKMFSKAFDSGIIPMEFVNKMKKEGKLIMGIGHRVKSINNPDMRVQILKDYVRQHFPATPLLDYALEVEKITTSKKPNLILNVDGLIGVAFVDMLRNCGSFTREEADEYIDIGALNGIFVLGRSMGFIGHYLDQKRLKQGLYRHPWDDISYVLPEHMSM
# Voltage-gated inwardly rectifying potassium channel KCNH2, sequence (Q12809 whole entry): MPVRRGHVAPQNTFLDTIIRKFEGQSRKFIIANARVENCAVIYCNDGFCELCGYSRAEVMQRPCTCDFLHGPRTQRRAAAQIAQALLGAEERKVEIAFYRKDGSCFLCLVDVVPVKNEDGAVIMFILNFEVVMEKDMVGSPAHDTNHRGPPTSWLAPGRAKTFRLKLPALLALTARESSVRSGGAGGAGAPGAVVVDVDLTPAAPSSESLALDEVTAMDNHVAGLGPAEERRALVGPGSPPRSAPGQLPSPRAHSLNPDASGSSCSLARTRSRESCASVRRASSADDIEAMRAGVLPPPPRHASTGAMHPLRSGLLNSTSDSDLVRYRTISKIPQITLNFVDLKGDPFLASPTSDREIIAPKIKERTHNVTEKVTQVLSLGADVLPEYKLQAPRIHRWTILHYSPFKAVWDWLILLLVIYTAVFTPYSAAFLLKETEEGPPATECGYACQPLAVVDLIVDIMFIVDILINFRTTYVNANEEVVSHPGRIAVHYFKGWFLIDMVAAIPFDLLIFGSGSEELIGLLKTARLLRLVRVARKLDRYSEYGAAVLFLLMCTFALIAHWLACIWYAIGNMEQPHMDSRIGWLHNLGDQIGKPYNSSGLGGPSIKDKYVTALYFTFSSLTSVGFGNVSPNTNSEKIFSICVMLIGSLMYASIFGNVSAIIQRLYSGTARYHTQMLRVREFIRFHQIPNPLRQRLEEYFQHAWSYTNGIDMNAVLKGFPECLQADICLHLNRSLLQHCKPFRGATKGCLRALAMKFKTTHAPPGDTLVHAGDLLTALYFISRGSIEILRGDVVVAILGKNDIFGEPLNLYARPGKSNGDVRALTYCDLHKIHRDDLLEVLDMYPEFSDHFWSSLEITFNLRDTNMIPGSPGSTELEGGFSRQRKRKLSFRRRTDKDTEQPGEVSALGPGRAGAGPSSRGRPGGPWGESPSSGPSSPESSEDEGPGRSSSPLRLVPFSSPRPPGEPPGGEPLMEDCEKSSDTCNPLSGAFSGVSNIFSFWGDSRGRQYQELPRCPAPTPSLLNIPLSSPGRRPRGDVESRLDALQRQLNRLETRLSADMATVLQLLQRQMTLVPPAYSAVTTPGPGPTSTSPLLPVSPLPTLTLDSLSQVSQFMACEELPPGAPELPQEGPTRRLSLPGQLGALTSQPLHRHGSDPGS
# Alpha-2B adrenergic receptor (Homo sapiens), sequence (P18089 whole entry): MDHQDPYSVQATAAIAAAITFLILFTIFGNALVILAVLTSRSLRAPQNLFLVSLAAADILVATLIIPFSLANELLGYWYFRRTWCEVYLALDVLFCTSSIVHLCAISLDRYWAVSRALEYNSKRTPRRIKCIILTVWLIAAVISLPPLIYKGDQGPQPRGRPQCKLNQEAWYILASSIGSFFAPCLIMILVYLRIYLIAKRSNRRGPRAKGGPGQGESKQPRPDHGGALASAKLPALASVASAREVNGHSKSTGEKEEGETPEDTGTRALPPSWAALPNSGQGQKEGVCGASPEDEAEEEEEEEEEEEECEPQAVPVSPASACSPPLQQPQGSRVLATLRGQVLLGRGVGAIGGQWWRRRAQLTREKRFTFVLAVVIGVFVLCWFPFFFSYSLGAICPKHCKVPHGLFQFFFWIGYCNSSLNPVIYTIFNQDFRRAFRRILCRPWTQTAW
smiles,measurement,setting,value
COc1ncc(C)cc1CC[C@@](O)(CC(=O)O)C(=O)O,Activity,[1],Active
same,IC50,[2],510 nM
same,inhibition,[3],inactive
same,inhibition,[4],inactive
same,inhibition,[5],inactive
same,inhibition,[6],inactive
same,IC50,[7]; read-out: IC50,13200 nM
same,IC50,[7]; read-out: pIC50 (converted),10000 nM
same,inhibition,[8],inactive
same,inhibition,[9],inactive
same,hepatocyte CLint,[10],< 6 µL/min/1e6 cells
same,inhibition,[11],inactive
same,IC50,[12],1000 nM
same,inhibition,[13],inactive
same,inhibition,[14],inactive
same,IC50,[15],1000 nM
same,inhibition,[16],inactive
same,inhibition,[17],Active
same,inhibition,[18],inactive
same,inhibition,[19],inactive
same,inhibition (INH),[20],Not Active
same,inhibition,[21],inactive
same,inhibition,[22],inactive
same,IC50,[23],1400 nM
same,inhibition,[24],inactive
same,inhibition (INH),[25],Not Active
same,clearance,[26],15.8 mL/min/kg
same,hepatocyte CLint,[27],7 µL/min/1e6 cells
same,inhibition,[28],inactive
same,inhibition,[29],inactive
same,inhibition,[30],inactive
same,inhibition,[31],inactive
same,half-life,[32],1.7 h
same,inhibition,[33],inactive
same,fold change (FC),[34],230
same,inhibition,[35],inactive
same,inhibition (INH),[36],Not Active
same,inhibition,[37],inactive
same,inhibition (INH),[38],Not Active
same,inhibition,[39],inactive
same,inhibition (INH),[40],Not Active
